We go through 5 compounds from paper PMC4121658 (Anesthesiology, 2014).

The nature of data set [1]: Lethality after intravenous bolus injection. The following applies: Sprague-Dawley, rat, in vivo, iv. Format: in vivo, Sprague-Dawley rats.
Data set [2] concerns rats. The experiment in a line: Lethality after intravenous bolus injection. Format: in vivo, Sprague-Dawley rats. The following applies: for rats died: intravenous bolus; for Therapeutic Index: LD50/Hypnotic ED50, rats.
For data set [3], the system named is rats. The following applies: larger number of Sprague Dawley rats; cited from earlier work.
Data set [4] has as its target α1(L264T)β3γ2L GABAA receptors (Homo sapiens, UniProt P14867+P28472, L291T). The experiment in a line: cell-based. Format: cell-based. The following applies: for Surge current amplitude, of the directly activated peak current: 1000 μM drug, upon washout, α1(L264T)β3γ2L; for Subunit Selectivity Ratio: EC50 β1 subunit/EC50 β3 subunit, ± SD by error propagation.
Data set [5] deals with α1(L264T)β1γ2L GABAA receptors (Homo sapiens, UniProt P14867+P18505, L291T). Format: cell-based. The following applies: for Surge current amplitude, of the directly activated peak current: 1000 μM drug, upon washout, α1(L264T)β1γ2L.
α1(L264T)β1γ2L GABAA receptors, sequence (P14867 28-456 L291T): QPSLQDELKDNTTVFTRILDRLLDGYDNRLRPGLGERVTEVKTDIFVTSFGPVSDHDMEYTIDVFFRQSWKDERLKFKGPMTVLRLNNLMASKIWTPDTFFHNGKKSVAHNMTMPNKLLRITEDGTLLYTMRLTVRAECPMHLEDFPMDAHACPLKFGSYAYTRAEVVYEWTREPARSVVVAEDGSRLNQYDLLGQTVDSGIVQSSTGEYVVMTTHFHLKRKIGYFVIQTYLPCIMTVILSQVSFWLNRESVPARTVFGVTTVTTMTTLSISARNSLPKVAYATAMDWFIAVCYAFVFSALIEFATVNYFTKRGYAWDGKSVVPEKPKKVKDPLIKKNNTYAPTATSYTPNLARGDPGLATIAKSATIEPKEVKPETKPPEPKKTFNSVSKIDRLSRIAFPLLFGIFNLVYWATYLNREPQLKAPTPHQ
α1(L264T)β1γ2L GABAA receptors, sequence (P18505 26-474): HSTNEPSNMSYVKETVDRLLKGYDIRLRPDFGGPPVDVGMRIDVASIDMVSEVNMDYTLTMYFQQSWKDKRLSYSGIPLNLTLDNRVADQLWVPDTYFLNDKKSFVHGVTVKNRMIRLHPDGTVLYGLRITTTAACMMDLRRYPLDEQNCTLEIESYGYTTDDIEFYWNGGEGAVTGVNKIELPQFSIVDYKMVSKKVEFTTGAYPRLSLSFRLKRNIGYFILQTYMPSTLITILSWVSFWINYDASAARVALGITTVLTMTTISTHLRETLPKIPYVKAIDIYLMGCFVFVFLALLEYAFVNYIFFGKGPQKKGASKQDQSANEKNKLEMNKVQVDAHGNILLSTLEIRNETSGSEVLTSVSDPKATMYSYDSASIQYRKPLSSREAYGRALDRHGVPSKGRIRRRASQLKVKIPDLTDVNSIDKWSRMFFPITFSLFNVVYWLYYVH
α1(L264T)β1γ2L GABAA receptors, sequence (P18507 40-475 partner): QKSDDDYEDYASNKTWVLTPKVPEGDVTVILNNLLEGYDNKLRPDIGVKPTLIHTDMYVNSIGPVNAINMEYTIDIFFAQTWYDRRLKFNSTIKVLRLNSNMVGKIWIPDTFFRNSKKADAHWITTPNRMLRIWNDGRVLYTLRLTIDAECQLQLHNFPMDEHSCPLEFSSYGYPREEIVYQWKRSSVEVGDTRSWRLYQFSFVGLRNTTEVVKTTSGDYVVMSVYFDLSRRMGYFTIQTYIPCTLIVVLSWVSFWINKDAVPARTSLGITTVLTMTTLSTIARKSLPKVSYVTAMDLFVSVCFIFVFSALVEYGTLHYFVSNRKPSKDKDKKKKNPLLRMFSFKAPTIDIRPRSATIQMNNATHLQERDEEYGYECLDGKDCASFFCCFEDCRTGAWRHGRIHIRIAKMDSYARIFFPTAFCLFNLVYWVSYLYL
The subject of data set [6] is adrenocortical function. The experiment in a line: ACTH1–24 stimulation test, in vivo adrenocortical inhibitory potency. Also on record: species or system Sprague-Dawley rats. The following applies: Adrenocortical ID50/Hypnotic ED50, rats.

α1(L264T)β3γ2L GABAA receptors, sequence (P14867 28-456 L291T): as the sequence (P14867 28-456 L291T) above
α1(L264T)β3γ2L GABAA receptors, sequence (P28472 26-473): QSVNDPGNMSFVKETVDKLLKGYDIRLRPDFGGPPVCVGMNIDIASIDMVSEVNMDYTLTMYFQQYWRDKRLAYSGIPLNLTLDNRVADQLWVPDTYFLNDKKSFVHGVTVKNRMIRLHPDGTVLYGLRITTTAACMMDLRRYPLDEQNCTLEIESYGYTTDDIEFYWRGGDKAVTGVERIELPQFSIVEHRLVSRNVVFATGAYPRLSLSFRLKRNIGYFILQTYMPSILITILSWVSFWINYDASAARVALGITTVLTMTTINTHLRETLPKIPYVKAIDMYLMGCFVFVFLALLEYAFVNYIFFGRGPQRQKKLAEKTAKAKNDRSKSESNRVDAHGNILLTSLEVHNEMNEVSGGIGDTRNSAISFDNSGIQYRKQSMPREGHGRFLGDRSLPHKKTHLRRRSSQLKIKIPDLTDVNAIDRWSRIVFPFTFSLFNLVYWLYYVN
α1(L264T)β3γ2L GABAA receptors, sequence (P18507 40-475 partner): as the sequence (P18507 40-475 partner) above

Broadly, the LD50 is the dose expected to kill half of the subjects tested. High values mean a less toxic substance, low ones a more toxic substance. On to `CCOC(=O)c1cncn1[C@H](C)c1ccccc1` [R-etomidate, R-ethyl 1-(1-phenylethyl)-1H-imidazole-5-carboxylate, reference compound], for which the LD50 amounted to 15 mg/kg in data set [1] and 20 mg/kg in data set [1] (20 mg/kg). In data set [2] (20 mg/kg dose), the rats died is given as 1/2. In addition, in data set [3], the “LD50, previously reported value” is reported as 20.4 mg/kg.

The compound `CCOC(=O)c1cncn1[C@@H](C)c1ccccc1` [S-etomidate, S-ethyl 1-(1-phenylethyl)-1H-imidazole-5-carboxylate, reference compound] displayed an LD50 in data set [1] of 25 mg/kg. The rats died in data set [2] (30 mg/kg dose) is on record as 3/3.

Broadly, the EC50 is the concentration at which the effect is half-maximal. Read a high EC50 as lower potency in that assay. For the compound `CCOC(=O)c1cncn1C1(c2ccccc2)CC1` [cyclopropyl etomidate, ethyl 1-(1-phenylcyclopropyl)-1H-imidazole-5-carboxylate], in data set [4], the EC50 worked out at 67.6 ± 8.1 µM; the “Surge current amplitude, of the directly activated peak current” value (from here on “Surge current amplitude”) came to 61.5 ± 6.9%; the “Subunit Selectivity Ratio” value stood at 23.5 ± 3.5. Moreover, in data set [5], a half-maximal effect (EC50) was put at 1590 ± 140 µM and the “Surge current amplitude” value is 73.0 ± 38.5%. Besides, the LD50 in data set [1] is 50 mg/kg. The rats died in data set [2] (50 mg/kg dose) was 2/4. Besides, in data set [2], the “Therapeutic Index” value is reported as 10. In addition, the “Adrenocortical Toxicity Index” value in data set [6] was determined as 0.38 ± 0.08.

As for `CCOC(=O)c1cncn1Cc1ccccc1` [dihydrogen etomidate, ethyl 1-benzyl-1H-imidazole-5-carboxylate], in data set [4], the EC50 stood at 161 ± 13 µM; the “Surge current amplitude” value was found to be 3 ± 2%; the “Subunit Selectivity Ratio” value came to 2.48 ± 0.27. Further, in data set [5], the EC50 is 400 ± 28 µM and the “Surge current amplitude” value is given as 3 ± 2%. The LD50 in data set [1] was 40 mg/kg. Moreover, the rats died in data set [2] (50 mg/kg dose) is on record as 3/3. For the same compound, the “Therapeutic Index” value in data set [2] is given as 8. In data set [6], the “Adrenocortical Toxicity Index” value is reported as 0.52 ± 0.12.

In data set [4], `CC(C)c1cccc(C(C)C)c1O` [propofol, reference compound] came in with an EC50 of 7.58 ± 0.83 µM.
